Test results as given in patent US10052320B2, “Substituted quinoxalines as FGFR kinase inhibitors” (ASTEX THERAPEUTICS LIMITED, priority 2011, dated 2018).
Where two headings read alike, the source gives them in different places.

How the values were obtained:
[1] = target: Ba/F3-KDR-transfected cells (Homo sapiens, UniProt P35968); assay: Ba/F3-KDR (minus IL3) cellular proliferation assay, Alamar Blue; type: cell-based
Procedure, shortened: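 Ba/F3-KDR cells in RPMI-1640 with 10% FBS, 20000 (384-well) or 10000 (96-well) per well, given compound for 24 h at 37° C; Alamar Blue then added for 4 h and fluorescence read (ex 540/em 590 nm). Counterscreen run identically with 10 ng/ml murine IL3.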

KDR (h) (VEGFR2) = KDR (h) (VEGFR2) (Homo sapiens, UniProt P35968); assay: KDR (VEGFR2) (enzymatic assay), TR-FRET; type: biochemical
KDR (h) (VEGFR2), sequence (P35968 20-1356): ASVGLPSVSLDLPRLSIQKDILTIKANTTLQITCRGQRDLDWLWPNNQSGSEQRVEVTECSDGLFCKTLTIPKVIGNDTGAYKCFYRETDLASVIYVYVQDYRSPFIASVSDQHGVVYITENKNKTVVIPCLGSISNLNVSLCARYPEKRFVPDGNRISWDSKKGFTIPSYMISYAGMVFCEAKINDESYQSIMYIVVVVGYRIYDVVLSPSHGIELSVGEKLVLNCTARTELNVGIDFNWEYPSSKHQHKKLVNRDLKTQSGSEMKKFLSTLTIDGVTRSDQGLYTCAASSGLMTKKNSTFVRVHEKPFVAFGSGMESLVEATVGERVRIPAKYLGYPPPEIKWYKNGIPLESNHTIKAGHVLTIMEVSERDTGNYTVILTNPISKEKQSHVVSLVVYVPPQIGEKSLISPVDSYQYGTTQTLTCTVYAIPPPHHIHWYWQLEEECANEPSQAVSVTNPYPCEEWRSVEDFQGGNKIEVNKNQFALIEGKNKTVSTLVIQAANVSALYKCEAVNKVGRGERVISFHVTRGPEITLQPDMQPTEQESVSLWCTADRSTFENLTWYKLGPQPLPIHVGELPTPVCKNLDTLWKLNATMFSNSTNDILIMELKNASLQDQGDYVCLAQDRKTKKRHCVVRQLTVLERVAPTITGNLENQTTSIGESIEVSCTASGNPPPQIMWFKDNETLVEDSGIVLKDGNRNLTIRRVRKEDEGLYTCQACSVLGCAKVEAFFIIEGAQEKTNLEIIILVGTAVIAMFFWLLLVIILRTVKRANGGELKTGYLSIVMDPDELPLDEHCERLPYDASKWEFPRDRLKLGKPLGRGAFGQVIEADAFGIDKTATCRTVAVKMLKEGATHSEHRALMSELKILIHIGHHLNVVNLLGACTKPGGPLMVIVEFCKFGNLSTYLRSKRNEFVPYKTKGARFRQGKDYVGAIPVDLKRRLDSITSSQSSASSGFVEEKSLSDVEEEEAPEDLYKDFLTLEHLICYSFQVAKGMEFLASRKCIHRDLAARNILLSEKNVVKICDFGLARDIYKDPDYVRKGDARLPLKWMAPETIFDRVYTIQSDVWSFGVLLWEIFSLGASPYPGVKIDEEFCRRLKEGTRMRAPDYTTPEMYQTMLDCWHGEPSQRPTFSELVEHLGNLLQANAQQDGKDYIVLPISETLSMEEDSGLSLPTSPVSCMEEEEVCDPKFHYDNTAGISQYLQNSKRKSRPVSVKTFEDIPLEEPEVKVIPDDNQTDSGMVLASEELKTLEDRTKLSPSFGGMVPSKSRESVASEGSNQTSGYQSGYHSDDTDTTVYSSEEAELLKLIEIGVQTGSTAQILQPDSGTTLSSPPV
Procedure, shortened: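 Human KDR (150 ng/ml) was reacted with 500 nM Btn-Flt3 and 3 μM ATP in 50 mM HEPES pH 7.5, 6 mM MnCl2, 1 mM DTT, 0.1 mM Na3VO4, 0.01% Triton X-100, 1% DMSO, for 120 min at room temperature. Phosphorylation detected by TR-FRET (Eu-anti-P-Tyr/SA-XL665, 60 min), read in RFU.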

FGFR2 (h) = FGFR2 (h) (Homo sapiens, UniProt P21802); assay: FGFR2 (enzymatic assay), TR-FRET; type: biochemical; details: read-out: FGFR 2 pIC50 (converted)
FGFR2 (h), sequence (P21802 22-821): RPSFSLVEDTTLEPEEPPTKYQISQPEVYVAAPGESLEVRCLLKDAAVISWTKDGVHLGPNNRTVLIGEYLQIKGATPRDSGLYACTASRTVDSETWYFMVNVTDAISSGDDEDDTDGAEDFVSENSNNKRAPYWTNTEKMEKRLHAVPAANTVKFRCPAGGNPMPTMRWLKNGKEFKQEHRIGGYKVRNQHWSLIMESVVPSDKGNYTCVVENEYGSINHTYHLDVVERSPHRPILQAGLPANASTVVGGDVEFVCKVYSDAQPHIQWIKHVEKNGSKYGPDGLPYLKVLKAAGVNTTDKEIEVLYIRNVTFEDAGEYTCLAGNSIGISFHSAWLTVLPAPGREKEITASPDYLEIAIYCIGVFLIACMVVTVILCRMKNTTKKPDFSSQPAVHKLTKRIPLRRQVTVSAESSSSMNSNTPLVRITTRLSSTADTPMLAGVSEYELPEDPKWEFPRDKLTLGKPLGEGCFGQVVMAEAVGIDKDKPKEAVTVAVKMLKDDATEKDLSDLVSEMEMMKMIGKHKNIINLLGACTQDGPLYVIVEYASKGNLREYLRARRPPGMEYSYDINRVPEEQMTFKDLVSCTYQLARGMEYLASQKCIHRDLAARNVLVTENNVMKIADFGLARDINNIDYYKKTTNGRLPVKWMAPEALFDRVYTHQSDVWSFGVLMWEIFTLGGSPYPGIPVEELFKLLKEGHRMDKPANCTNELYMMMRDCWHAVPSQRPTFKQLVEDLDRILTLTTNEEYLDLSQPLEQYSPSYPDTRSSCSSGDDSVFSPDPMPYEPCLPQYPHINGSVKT
Protocol: In a final reaction volume of 30 μL, FGFR2 (h) (150 ng/ml) was incubated with 50 mM HEPES pH 7.5, 6 mM MnCl2, 1 mM DTT, 0.1 mM Na3VO4, 0.01% Triton-X-100, 500 nM Btn-Flt3 and 0.4 μM ATP in the presence of compound (1% DMSO final). […] Time-Resolved Fluorescence Resonance Energy Transfer (TR-FRET) signal (ex340 nm. Em 620 nm, em 655 nm) was measured afterwards and results are expressed in (Relative Fluorescence Units).

[2] = target: Ba/F3-FGFR4-transfected cells (Homo sapiens, UniProt P22455); assay: Ba/F3-FGFR4 cellular proliferation assay, Alamar Blue; type: cell-based
Ba/F3-FGFR4-transfected cells, sequence (P22455 whole entry, change not shown): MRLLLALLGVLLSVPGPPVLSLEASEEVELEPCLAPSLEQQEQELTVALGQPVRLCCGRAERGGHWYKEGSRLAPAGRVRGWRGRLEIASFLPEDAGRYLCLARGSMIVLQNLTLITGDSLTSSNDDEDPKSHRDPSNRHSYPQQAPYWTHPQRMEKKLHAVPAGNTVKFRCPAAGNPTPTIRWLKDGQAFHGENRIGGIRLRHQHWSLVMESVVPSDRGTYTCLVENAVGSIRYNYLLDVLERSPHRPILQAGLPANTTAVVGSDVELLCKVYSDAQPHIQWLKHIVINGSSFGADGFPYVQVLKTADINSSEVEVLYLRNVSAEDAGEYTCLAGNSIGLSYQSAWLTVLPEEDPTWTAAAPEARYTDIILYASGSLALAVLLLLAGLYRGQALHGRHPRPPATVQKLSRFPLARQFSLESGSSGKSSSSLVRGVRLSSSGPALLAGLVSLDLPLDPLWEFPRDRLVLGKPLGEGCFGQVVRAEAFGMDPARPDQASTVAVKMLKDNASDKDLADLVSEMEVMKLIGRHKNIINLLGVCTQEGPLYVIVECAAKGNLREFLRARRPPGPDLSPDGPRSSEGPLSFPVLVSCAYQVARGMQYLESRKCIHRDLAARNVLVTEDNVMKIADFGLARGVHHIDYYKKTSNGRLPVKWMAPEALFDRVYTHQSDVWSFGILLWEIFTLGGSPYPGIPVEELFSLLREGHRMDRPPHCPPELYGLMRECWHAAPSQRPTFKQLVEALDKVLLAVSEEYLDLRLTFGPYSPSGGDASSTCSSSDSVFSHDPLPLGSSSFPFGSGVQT
Protocol: Ba/F3-FGFR4 (Cellular Proliferation Assay)
(§1) In a 384 well plate, 100 nl of compound dilution in DMSO was sprayed before adding 50 μl cell culture medium (phenol red free RPMI-1640, 10% FBS, 2 mM L-Glutamine and 50 μg/ml Gentamycin) containing 20000 cells per well of Ba/F3-FGFR4-transfected cells. Cells were put in an incubator at 37° C. and 5% CO2. After 24 hours, 10 μl of Alamar Blue solution (0.5 mM K3Fe(CN)6, 0.5 mM KaFe(CN)6, 0.15 mM Resazurin and 100 mM Phosphate Buffer) was added to the wells, incubated for 4 hours at 37° C. and 5% CO2 before RFU's (Relative Fluorescence Units) (ex. 540 nm., em. 590 nm.) were measured in a flurorescence plate reader.

FGFR3 (h) = FGFR3 (h) (Homo sapiens, UniProt P22607); assay: FGFR3 (enzymatic assay), TR-FRET; type: biochemical; details: read-out: FGFR 3 pIC50 (converted)
Protocol: In a final reaction volume of 30 μL, FGFR3 (h) (40 ng/ml) was incubated with 50 mM HEPES pH 7.5, 6 mM MnCl2, 1 mM DTT, 0.1 mM Na3VO4, 0.01% Triton-X-100, 500 nM Btn-Flt3 and 25 μM ATP in the presence of compound (1% DMSO final). […] Time-Resolved Fluorescence Resonance Energy Transfer (TR-FRET) signal (ex340 nm. Em 620 nm, em 655 nm) was measured afterwards and results are expressed in RFU (Relative Fluorescence Units).

[3] = target: Ba/F3-FGFR3-transfected cells (Homo sapiens, UniProt P22607); assay: Ba/F3-FGFR3 (minus IL3) cellular proliferation assay, Alamar Blue; type: cell-based; details: for BAF3-FGFR 3 (MIN IL3) 384 well pIC50: minus IL3, 384 well; for BAF3-FGFR 3 (MIN IL3) 96 well pIC50: minus IL3, 96 well
Ba/F3-FGFR3-transfected cells, sequence (P22607 whole entry, change not shown): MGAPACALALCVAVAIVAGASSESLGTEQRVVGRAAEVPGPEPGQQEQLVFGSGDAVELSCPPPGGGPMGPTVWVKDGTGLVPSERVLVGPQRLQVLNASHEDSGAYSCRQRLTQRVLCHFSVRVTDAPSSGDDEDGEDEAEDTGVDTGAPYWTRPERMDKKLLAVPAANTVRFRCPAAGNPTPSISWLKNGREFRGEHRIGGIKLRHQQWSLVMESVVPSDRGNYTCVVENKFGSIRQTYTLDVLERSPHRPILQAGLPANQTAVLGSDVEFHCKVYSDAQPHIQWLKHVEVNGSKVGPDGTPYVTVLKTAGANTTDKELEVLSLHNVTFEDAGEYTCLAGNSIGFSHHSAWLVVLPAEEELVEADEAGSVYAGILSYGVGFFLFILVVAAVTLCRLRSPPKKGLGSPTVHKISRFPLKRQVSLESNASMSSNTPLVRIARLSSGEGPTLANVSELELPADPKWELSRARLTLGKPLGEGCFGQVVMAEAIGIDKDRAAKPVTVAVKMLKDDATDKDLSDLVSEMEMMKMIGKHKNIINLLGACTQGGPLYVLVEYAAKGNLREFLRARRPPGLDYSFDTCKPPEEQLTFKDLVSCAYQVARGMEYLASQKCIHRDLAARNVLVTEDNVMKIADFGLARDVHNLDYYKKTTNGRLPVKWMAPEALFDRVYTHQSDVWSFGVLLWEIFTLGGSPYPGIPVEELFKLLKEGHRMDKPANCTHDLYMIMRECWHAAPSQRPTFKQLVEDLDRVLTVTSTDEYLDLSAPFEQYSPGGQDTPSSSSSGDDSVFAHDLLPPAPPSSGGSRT
Protocol: Ba/F3-FGFR3 (Minus IL3 or Plus IL3) (Cellular Proliferation Assay)
Cells were put in an incubator at 37° C. and 5% CO2. After 24 hours, 10 μl of Alamar Blue solution (0.5 mM K3Fe(CN)6, 0.5 mM KaFe(CN)6, 0.15 mM Resazurin and 100 mM Phosphate Buffer) was added to the wells, incubated for 4 hours at 37° C. and 5% CO2 before RFU's (Relative Fluorescence Units) (ex. 540 nm., em. 590 nm.) were measured in a flurorescence plate reader. […]
as §1, with “a 96” for “a 384”, “plate, 180” for “plate, 100 nl of compound dilution in DMSO was sprayed before adding 50”, “containing 10000” for “containing 20000”, “of Ba/F3-FGFR3-transfected cells were pipette and 20 μl of compound dilution in DMSO was added.” for “of Ba/F3-FGFR4-transfected cells.”, “hours, 40” for “hours, 10”

Ba/F3-KDR-transfected cells, sequence (P35968 whole entry, change not shown): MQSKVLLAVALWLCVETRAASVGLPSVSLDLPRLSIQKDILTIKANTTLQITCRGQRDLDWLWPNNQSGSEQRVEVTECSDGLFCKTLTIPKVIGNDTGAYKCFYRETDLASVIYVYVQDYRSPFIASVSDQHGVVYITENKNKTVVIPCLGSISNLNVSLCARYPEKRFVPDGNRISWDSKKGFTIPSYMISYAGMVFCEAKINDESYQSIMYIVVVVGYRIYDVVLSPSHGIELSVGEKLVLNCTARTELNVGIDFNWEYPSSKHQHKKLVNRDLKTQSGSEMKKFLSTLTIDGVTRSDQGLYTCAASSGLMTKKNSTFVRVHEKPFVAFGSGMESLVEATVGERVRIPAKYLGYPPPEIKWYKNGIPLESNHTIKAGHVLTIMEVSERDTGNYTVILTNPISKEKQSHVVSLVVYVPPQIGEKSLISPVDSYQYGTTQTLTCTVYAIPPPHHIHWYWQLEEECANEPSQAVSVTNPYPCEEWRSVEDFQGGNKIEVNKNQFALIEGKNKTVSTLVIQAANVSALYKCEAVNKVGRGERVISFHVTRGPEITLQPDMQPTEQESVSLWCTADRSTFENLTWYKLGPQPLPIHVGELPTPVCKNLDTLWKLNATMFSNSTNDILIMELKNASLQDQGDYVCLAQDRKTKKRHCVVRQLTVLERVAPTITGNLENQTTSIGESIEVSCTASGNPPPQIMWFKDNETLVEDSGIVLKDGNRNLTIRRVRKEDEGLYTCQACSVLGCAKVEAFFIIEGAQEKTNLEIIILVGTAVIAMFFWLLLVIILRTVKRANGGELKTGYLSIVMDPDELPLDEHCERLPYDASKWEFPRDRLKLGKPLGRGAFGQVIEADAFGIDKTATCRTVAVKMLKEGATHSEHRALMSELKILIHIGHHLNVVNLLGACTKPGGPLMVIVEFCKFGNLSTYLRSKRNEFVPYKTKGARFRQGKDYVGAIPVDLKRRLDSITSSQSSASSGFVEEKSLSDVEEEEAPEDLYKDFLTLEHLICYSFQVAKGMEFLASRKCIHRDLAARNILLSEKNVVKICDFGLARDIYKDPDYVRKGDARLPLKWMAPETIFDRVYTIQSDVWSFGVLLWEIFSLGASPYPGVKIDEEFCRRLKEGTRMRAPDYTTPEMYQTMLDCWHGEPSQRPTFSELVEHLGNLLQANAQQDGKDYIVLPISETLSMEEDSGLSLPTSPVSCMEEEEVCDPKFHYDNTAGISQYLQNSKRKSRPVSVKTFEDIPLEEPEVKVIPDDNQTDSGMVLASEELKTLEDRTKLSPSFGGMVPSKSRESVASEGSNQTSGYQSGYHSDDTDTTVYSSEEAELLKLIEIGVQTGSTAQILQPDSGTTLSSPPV

## COc1cc(OC)cc(N(CCNC(C)C)c2ccc3ncc(C(=O)N4CCOCC4)nc3c2)c1 [Compound 181]
[1]; minus IL3
  BAF3-KDR (MIN IL3) 384 well pIC50: <5
KDR (h) (VEGFR2)
  IC50: > 1000 nM
FGFR2 (h)
  IC50: 490 nM
[2]
  BAF3-FGFR4 pIC50: <5
FGFR3 (h)
  IC50: 501 nM
[3]
  BAF3-FGFR 3 (MIN IL3) 384 well pIC50: 5.16

## COc1cc(OC)cc(N(CC2CC2)c2ccc3ncc(-c4cccc(N5CCOCC5)c4)nc3c2)c1 [Compound 92]
[1]; minus IL3
  BAF3-KDR (MIN IL3) 384 well pIC50: <5
KDR (h) (VEGFR2)
  IC50: 1950 nM
FGFR2 (h)
  IC50: 661 nM
[2]
  BAF3-FGFR4 pIC50: <5
FGFR3 (h)
  IC50: 263 nM
[3]
  BAF3-FGFR 3 (MIN IL3) 96 well pIC50: <5
  BAF3-FGFR 3 (MIN IL3) 384 well pIC50: <5

## COc1cc(OC)cc(N(CC2CC2)c2ccc3ncc(-c4ccc5[nH]ccc5c4)nc3c2)c1 [Compound 86]
[1]; minus IL3, 384 well
  BAF3-KDR (MIN IL3) 384 well pIC50: <5
KDR (h) (VEGFR2)
  IC50: > 10000 nM
FGFR2 (h)
  IC50: 1820 nM
[2]; 384 well
  BAF3-FGFR4 pIC50: <5
FGFR3 (h)
  IC50: 417 nM
[3]
  BAF3-FGFR 3 (MIN IL3) 96 well pIC50: 5.4
  BAF3-FGFR 3 (MIN IL3) 384 well pIC50: <5

## COc1cc(OC)cc(N(CCCNCC(F)(F)F)c2ccc3ncc(-c4ccnc(F)c4)nc3c2)c1 [Compound 144]
[1]; minus IL3
  BAF3-KDR (MIN IL3) 384 well pIC50: <5
KDR (h) (VEGFR2)
  IC50: > 1000 nM
FGFR2 (h)
  IC50: ~85.1 nM
[2]
  BAF3-FGFR4 pIC50: <5
FGFR3 (h)
  IC50: 56.2 nM
[3]
  BAF3-FGFR 3 (MIN IL3) 384 well pIC50: 5.1

## COc1cc(OC)cc(N(CCCO)c2ccc3ncc(-c4cnc(N5CCN(C)CC5)c(C)c4)nc3c2)c1 [Compound 135]
[1]; minus IL3
  BAF3-KDR (MIN IL3) 384 well pIC50: 5.33
KDR (h) (VEGFR2)
  IC50: 170 nM
FGFR2 (h)
  IC50: 6.17 nM
[2]
  BAF3-FGFR4 pIC50: 6.1
FGFR3 (h)
  IC50: 2.45 nM
[3]
  BAF3-FGFR 3 (MIN IL3) 384 well pIC50: 6.3

## COCC(O)CN(c1cc(OC)cc(OC)c1)c1ccc2ncc(-c3cccnc3)nc2c1 (single isomer, unassigned) [Compound 46]
[1]; minus IL3
  BAF3-KDR (MIN IL3) 384 well pIC50: <5
KDR (h) (VEGFR2)
  IC50: 295 nM
FGFR2 (h)
  IC50: 12 nM
[2]
  BAF3-FGFR4 pIC50: 5.8
FGFR3 (h)
  IC50: 7.24 nM
[3]
  BAF3-FGFR 3 (MIN IL3) 384 well pIC50: 6.65

## COc1cc(OC)cc(N(CCO)c2ccc3ncc(-c4ccc(N5CCN(C)CC5)nc4)nc3c2)c1 [Compound 163]
[1]; minus IL3
  BAF3-KDR (MIN IL3) 384 well pIC50: 5.3
KDR (h) (VEGFR2)
  IC50: 355 nM
FGFR2 (h)
  IC50: 15.8 nM
[2]
  BAF3-FGFR4 pIC50: <5
FGFR3 (h)
  IC50: 7.94 nM
[3]
  BAF3-FGFR 3 (MIN IL3) 384 well pIC50: ~6.14

## COc1cc(OC)cc(N(CCCNC(C)C)c2ccc3ncc(-c4ccnc(NC(=O)NC(C)C)c4)nc3c2)c1 [Compound 131]
[1]; minus IL3
  BAF3-KDR (MIN IL3) 384 well pIC50: 5.37
KDR (h) (VEGFR2)
  IC50: 200 nM
FGFR2 (h)
  IC50: 4.68 nM
[2]
  BAF3-FGFR4 pIC50: 6.0
FGFR3 (h)
  IC50: 5.89 nM
[3]
  BAF3-FGFR 3 (MIN IL3) 384 well pIC50: 6.08

## COc1cc(OC)cc(N(CC#Cc2ncccn2)c2ccc3ncc(-c4cccnc4)nc3c2)c1 [Compound 2]
[1]; minus IL3
  BAF3-KDR (MIN IL3) 384 well pIC50: <5
KDR (h) (VEGFR2)
  IC50: > 1000 nM
FGFR2 (h)
  IC50: 34.7 nM
[2]
  BAF3-FGFR4 pIC50: 6.9
FGFR3 (h)
  IC50: 56.2 nM
[3]
  BAF3-FGFR 3 (MIN IL3) 384 well pIC50: 7.13

## COc1cc(OC)cc(N(CC2CC2)c2ccc3ncc(N4CCN(C)CC4)nc3c2)c1 [Compound 64]
[1]; minus IL3, 384 well
  BAF3-KDR (MIN IL3) 384 well pIC50: <5
KDR (h) (VEGFR2)
  IC50: 5500 nM
FGFR2 (h)
  IC50: 331 nM
[2]; 384 well
  BAF3-FGFR4 pIC50: <5
FGFR3 (h)
  IC50: 191 nM
[3]
  BAF3-FGFR 3 (MIN IL3) 96 well pIC50: 5.02
  BAF3-FGFR 3 (MIN IL3) 384 well pIC50: <5

## COc1cc(OC)cc(N(CCO)c2ccc3ncc(N4CCC(CN)CC4)nc3c2)c1 [Compound 84]
[1]; minus IL3
  BAF3-KDR (MIN IL3) 384 well pIC50: <5
KDR (h) (VEGFR2)
  IC50: > 1000 nM
FGFR2 (h)
  IC50: 91.2 nM
[2]
  BAF3-FGFR4 pIC50: <5
FGFR3 (h)
  IC50: 40.7 nM
[3]
  BAF3-FGFR 3 (MIN IL3) 384 well pIC50: <5

## COc1cc(OC)cc(N(CCCO)c2ccc3ncc(-c4cccnc4F)nc3c2)c1 [Compound 149]
[1]; minus IL3
  BAF3-KDR (MIN IL3) 384 well pIC50: <5
KDR (h) (VEGFR2)
  IC50: > 1000 nM
FGFR2 (h)
  IC50: 102 nM
[2]
  BAF3-FGFR4 pIC50: 5.6
FGFR3 (h)
  IC50: 35.5 nM
[3]
  BAF3-FGFR 3 (MIN IL3) 384 well pIC50: 5.32

## COc1cc(OC)cc(N(CCO)c2ccc3ncc(C4=CCN(C(=O)OC(C)(C)C)CC4)nc3c2)c1 [Compound 178]
[1]; minus IL3
  BAF3-KDR (MIN IL3) 384 well pIC50: <5
KDR (h) (VEGFR2)
  IC50: > 1000 nM
FGFR2 (h)
  IC50: 12.3 nM
[2]
  BAF3-FGFR4 pIC50: 5.9
FGFR3 (h)
  IC50: 2.88 nM
[3]
  BAF3-FGFR 3 (MIN IL3) 384 well pIC50: 6.29

## COc1cc(OC)cc(N(CC2CC2)c2ccc3ncc(-c4cnc5[nH]ccc5c4)nc3c2)c1 [Compound 88]
[1]; minus IL3, 384 well
  BAF3-KDR (MIN IL3) 384 well pIC50: <5
KDR (h) (VEGFR2)
  IC50: > 10000 nM
FGFR2 (h)
  IC50: 1150 nM
[2]; 384 well
  BAF3-FGFR4 pIC50: <5
FGFR3 (h)
  IC50: 380 nM
[3]
  BAF3-FGFR 3 (MIN IL3) 96 well pIC50: <5
  BAF3-FGFR 3 (MIN IL3) 384 well pIC50: <5

## COc1cc(OC)cc(N(CCCNCC(F)(F)F)c2ccc3ncc(-c4ccnc(Cl)c4)nc3c2)c1 [Compound 145]
[1]; minus IL3
  BAF3-KDR (MIN IL3) 384 well pIC50: <5
KDR (h) (VEGFR2)
  IC50: > 1000 nM
FGFR2 (h)
  IC50: 166 nM
[2]
  BAF3-FGFR4 pIC50: <5.35
FGFR3 (h)
  IC50: 97.7 nM
[3]
  BAF3-FGFR 3 (MIN IL3) 384 well pIC50: <5

## COc1cc(OC)cc(N(CCCNCCCO)c2ccc3ncc(-c4ccnc(C(=O)NCCCCN)c4)nc3c2)c1 [Compound 132]
[1]; minus IL3
  BAF3-KDR (MIN IL3) 384 well pIC50: 5.04
KDR (h) (VEGFR2)
  IC50: 309 nM
FGFR2 (h)
  IC50: 8.71 nM
[2]
  BAF3-FGFR4 pIC50: 5.6
FGFR3 (h)
  IC50: 18.6 nM
[3]
  BAF3-FGFR 3 (MIN IL3) 384 well pIC50: 5.57

## COc1cc(OC)cc(N(CCNC(C)C)c2ccc3ncc(C(=O)NCCCN4CCN(C)CC4)nc3c2)c1 [Compound 159]
[1]; minus IL3
  BAF3-KDR (MIN IL3) 384 well pIC50: <5
KDR (h) (VEGFR2)
  IC50: > 1000 nM
FGFR2 (h)
  IC50: 66.1 nM
[2]
  BAF3-FGFR4 pIC50: ~5.5
FGFR3 (h)
  IC50: 155 nM
[3]
  BAF3-FGFR 3 (MIN IL3) 384 well pIC50: 5.82
